Test results published in US7341998B2 (The Board of Trustees of the Leland Stanford Junior …, priority 2005, dated 2008).

Target: voltage-gated Na channels
Type: cell-based, squid (Loligo opalescens)

Question: What does the source list for “MKLTCVLVVLLLLLPYGDLITNNYIRGAARKVTPWRRNLKTRDVCDSLVGGHCIHNGCWCDQEAPHGNCCDTDGCTAAWWCPGTKWD [calTx1.1A]”?
Answer: Ki: ~15 nM; Na-channel blocking activity (block): 55%; reversibility of INa reduction/block: reversibly blocked INa; steady-state voltage-dependence of fast inactivation of residual INa: not significantly affected; time course of residual prepulse-sensitive INa: not significantly different than normal; voltage dependence of block: potency decreasing e-fold in: 300-400 mV
